{
  "source": "patent US20100035978A1",
  "about": "“COMBINATION OF CANNABINOIDS FOR THE TREATMENT OF PERIPHERAL NEUROPATHIC PAIN” (GW Pharma Limited, priority 2005, published 2010)",
  "origin": "cited, not measured here",
  "test_system": "patients taking carbamezepine",
  "data": [
    {"compound": "NC(=O)N1c2ccccc2C=Cc2ccccc21", "note": "[carbamezepine]", "values": [
      {"measurement": "increase in the risk of blood dyscrasias", "setting": "post-marketing studies", "result": "five- to eight-fold"},
      {"measurement": "patients with a 25% decrease in white blood cell count", "setting": "usually reverses within the first 4 months of therapy", "result": 7, "unit": "%"}
    ]}
  ]
}
